According to US20240190862A1 (AMGEN INC., priority 2019, published 2024):
Like-named read-outs stand apart in the source and are kept apart here.

What was measured:
[1] = test system: Phosphorylation of ERK1/2 in MIA PaCa-2 (G12C) cells; experiment: Phospho-ERK1/2 MSD Assay; format: cell-based; settings: Homo sapiens; 2 h compound treatment, MIA PaCa-2 cells; read-out: basal p-ERK 2 h MIA PaCa-2 (G12C) IC50 IP
Experimental: Phospho-ERK1/2 MSD Assay: MIA PaCa-2 (ATCC® CRL-1420™) cells were cultured in RPMI 1640 Medium (ThermoFisher Scientific 11875093) containing 1% fetal bovine serum (ThermoFisher Scientific 16000044) and 1× penicillin-streptomycin-glutamine (ThermoFisher Scientific 10378016). Sixteen hours prior to compound treatment, MIA PaCa-2 cells were seeded in 96-well cell culture plates at a density of 25,000 cells/well and incubated at 37° C., 5% C02. A compound dose-response titration was diluted in growth media, added to appropriate wells of a cell culture plate, and then incubated at 37° C., 5% C02 for 2 or 4 hours (see Table 15). Following compound treatment, cells were washed with ice-cold Dulbecco's phosphate-buffered saline, no Ca^2+or Mg^2+(ThermoFisher Scientific 14190144), and then lysed in RIPA buffer (50 mM Tris-HCl pH 7.5, 1% Igepal, 0.5% sodium deoxycholate, 150 mM NaCl, and 0.5% sodium dodecyl sulfate) containing protease inhibitors (Roche 4693132001) and phosphatase inhibitors (Roche 4906837001). Phosphorylation of ERK1/2 in compound-treated lysates was assayed using Phospho-ERK1/2 Whole Cell Lysate kits (Meso Scale Discovery K151DWD) according to the manufacturer's protocol. Assay plates were read on a Meso Scale Discovery Sector Imager 6000, and data were analyzed using a 4-parameter logistic model to calculate IC50 values.

[2] = biological target: GDP-bound KRAS protein (aa 1-169) G12D/C118A (Homo sapiens (Human), UniProt P01116, C118A/G12D); experiment: Coupled Nucleotide Exchange Assay (KRAS G12D); format: biochemical; settings: 20 h compound pre-incubation; read-out: GDP KRAS G12D 20 h Coupled Exchange IC50 IP
Experimental: (§1) Coupled Nucleotide Exchange Assay: Purified GDP-bound KRAS protein (aa 1-169), containing either G12C or G12D, as well as C118A amino acid substitutions and an N-terminal His-tag, was pre-incubated in assay buffer (25 mM HEPES pH 7.4, 10 mM MgCl2, and 0.01% Triton X-100) with a compound dose-response titration for either 5 min or 20 hours (see Table 15). Following compound pre-incubation, purified SOS protein (aa 564-1049) and GTP (Roche 10106399001) were added to the assay wells and incubated for an additional 30 min. To determine the extent of inhibition of SOS-mediated nucleotide exchange, purified GST-tagged cRAF (aa 1-149), nickel chelate AlphaLISA acceptor beads (PerkinElmer AL108R), and AlphaScreen glutathione donor beads (PerkinElmer 6765302) were added to the assay wells and incubated for 10 minutes. The assay plates were then read on a PerkinElmer EnVision Multilabel Reader, using AlphaScreen® technology, and data were analyzed using a 4-parameter logistic model to calculate IC50 values.

[3] = biological target: GDP-bound KRAS protein (aa 1-169) G12C/C118A (Homo sapiens (Human), UniProt P01116, C118A/G12C); experiment: Coupled Nucleotide Exchange Assay (KRAS G12C); format: biochemical
Experimental: as §1

GDP-KRAS G12D = GDP-KRAS G12D (Homo sapiens, UniProt P01116, C118A/G12D); experiment: GDP-KRAS G12D RF-MS Assay; format: binding; settings: 100 μM inhibitor, 20 h incubation, 2 uM KRAS G12D
Experimental: GDP-KRAS G12D RF-MS Assay: MS assays were performed in the following buffer: 25 mM HEPES pH 7.4, 20 mM MgCl2, 10 mM NaCl, 3% DMSO, 0.0005% CHAPS with 100 μM GDP made fresh and added to the assay buffer. The final concentration of KRAS G12D was 2 uM. Assay incubation times were 20 h and the inhibitor concentration was 100 μM. Greiner polypropylene clear V-bottom plates were used for the mass spectrometry assays. Typically, the reaction was initiated by addition of KRAS G12D to a well containing inhibitor followed by Rapidfire MS analysis. Relative % Bound values at the various incubation times were used to estimate a kobs value at 100 uM inhibitor.
RapidFire Sample Liquid handling System: The RapidFire liquid handling unit used was the RF 360 model. Solvents were delivered by Agilent 1260 Infinity pumps. The instrument control software was the Agilent RapidFire High Throughput MS-system software (v4.0.12333.14274). A single C4 Type A (Agilent technologies, G9203) SPE-cartridge was used for these experiments. A volume of 10 μL (sample loop determined) was removed from each well of a 384-well plate by using an aspiration time of 300 ms. The sample load/wash time was 6000 ms at a flow rate of 1.25 mL/min (H2O, 0.1% v/v formic acid, 0.05% v/v trifluoroacetic acid); elution time was 7000 ms (acetonitrile, 0.1% v/v formic acid, 0.05% v/v trifluoroacetic acid); re-equilibration time was 700 ms at a flow rate of 1.25 mL/min (H2O, 0.1% v/v formic acid, 0.05% v/v trifluoroacetic acid).
Mass Spectrometry: Mass spectrometric data was acquired on an Agilent 6530 quadrupole time-of-flight (ToF) MS system, operated with a dual Agilent Jet Spray (AJS) ion source, in positive ionization mode. The instrument parameters were as follows: gas temperature 350° C.; drying gas 5 L/min; nebulizer 60 psi; sheath gas 350° C.; sheath gas flow 11 L/min; capillary 3.5 kV (0.037 μA); nozzle 1.75 kV; fragmentor 200 V; skimmer 75 V; octapole RF 800 V peak-to-peak. Data was acquired at the rate of 5 spectra/s. The mass scale was calibrated using the Agilent positive ion tune mix, over the m/z range 300-3200. The instrument control software was Agilent MassHunter Workstation Data Acquisition (vB.05.01).
Mass Spectrometry Data Processing and Informatics: All data processing was performed using a HP Z620, 64-bit, 12-processor, Windows 7 PC, using a combination of Agilent MassHunter Qualitative Analysis (B.05.00) Agilent RapidFire control software (v4.0.12333.14070) and the Agilent DA Reprocessor Offline Utilities B.05.00, Build 162. The SPE-MS data acquired from the RapidFire-MS system is typically a single SPE-MS data file composed of multiple injection events. For effective charge state extraction, SPE-peak integration and subsequent MS-spectral deconvolution, the single SPE-MS data file is split into single injection events. This is typically performed off-line and achieved through the RapidFire User Interface software, using the Agilent RapidFire control software (v4.0.12333.14070) using the Convert MS Data option. Once the individual injection-event MS-data files have been produced, they are all batch processed using the DA Reprocessor Offline Utilities (B.05.00, Build 162, Agilent). For batch processing a method file was created using Agilent MassHunter Qualitative Analysis B.05.00. The details of this method file are contained within the BioConfirm Workflow and are as follows: Integrate (MS), Integrator Selection: General, smooth option selected; detector point sampling 1; start threshold 5.0; stop threshold 0.0; filtering 5 point; peak location, top. Extract (MS): Peak Spectrum Extraction (MS) within m/z 800-1400. Deconvolute (MS) Maximum Entropy: mass range 19,000-21,000 Daltons; Mass step 1.0 Da; S/N threshold 20.0; Use limited m/z range 800-1400; adduct proton; isotope peak width automatic; minimum consecutive charge states 5. […]

[4] = 5 min compound pre-incubation, read-out: GDP KRAS G12C 5 min Coupled Exchange IC50 IP
[5] = 20 h compound pre-incubation, read-out: GDP KRAS G12C 20 h Coupled Exchange IC50 IP

Sequence of GDP-bound KRAS protein (aa 1-169) G12C/C118A (P01116 other isoform, or with tags, fused parts or gaps G12C/C118A): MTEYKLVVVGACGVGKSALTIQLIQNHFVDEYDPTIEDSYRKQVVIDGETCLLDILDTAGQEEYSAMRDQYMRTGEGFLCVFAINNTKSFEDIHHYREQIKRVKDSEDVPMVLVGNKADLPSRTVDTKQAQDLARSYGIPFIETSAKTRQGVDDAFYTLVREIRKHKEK
Sequence of GDP-bound KRAS protein (aa 1-169) G12D/C118A (P01116 other isoform, or with tags, fused parts or gaps G12D/C118A): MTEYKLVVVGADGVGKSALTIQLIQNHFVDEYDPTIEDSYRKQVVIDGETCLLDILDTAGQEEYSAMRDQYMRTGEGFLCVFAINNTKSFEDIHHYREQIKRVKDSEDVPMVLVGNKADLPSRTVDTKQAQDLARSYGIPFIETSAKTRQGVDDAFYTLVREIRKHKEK

## Cc1ccnc(C(C)C)c1-n1c(=O)nc(N2CCN(C(=O)C=O)C[C@@H]2C)c2cc(Cl)c(-c3ccccc3F)nc21 [Example 4, (S)-2-(4-(6-chloro-7-(2-fluorophenyl)-1-(2-isopropyl-4-methylpyridin-3-yl)-2-oxo-1,2-dihydropyrido[2,3-d]pyrimidin-4-yl)-3-methylpiperazin-1-yl)-2-oxoacetaldehyde]
[1]
  IC50: 711 nM

## COC(=O)/C=C/C(=O)N1CCN(c2nc(=O)n(-c3c(C)ccnc3C(C)C)c3nc(-c4ccccc4F)c(Cl)cc23)[C@@H](C)C1 [Example 5, Methyl (S,E)-4-(4-(6-chloro-7-(2-fluorophenyl)-1-(2-isopropyl-4-methylpyridin-3-yl)-2-oxo-1,2-dihydropyrido[2,3-d]pyrimidin-4-yl)-3-methylpiperazin-1-yl)-4-oxobut-2-enoate]
[1]
  IC50: 61 nM
[2]
  IC50: > 250000 nM
[3]; [4]
  IC50: 95 nM
[3]; [5]
  IC50: 26 nM

## CCOC(=O)[C@@H]1O[C@H]1C(=O)N1CCN(c2nc(=O)n(-c3c(C)ccnc3C(C)C)c3nc(-c4ccccc4F)c(Cl)cc23)[C@@H](C)C1 [Example 19, Ethyl (2R,3R)-3-((S)-4-(6-chloro-7-(2-fluorophenyl)-1-(2-isopropyl-4-methylpyridin-3-yl)-2-oxo-1,2-dihydropyrido[2,3-d]pyrimidin-4-yl)-3-methylpiperazine-1-carbonyl)oxirane-2-carboxylate]
[1]
  IC50: 96 nM
GDP-KRAS G12D
  GDP-KRAS G12D RF-MS 100 μM 20 h Relative % Bound: 3.4%
[2]
  IC50: > 250000 nM
[3]; [4]
  IC50: 216 nM
[3]; [5]
  IC50: 5 nM
